Test results: patent US20040006236A1, “Diaminopropionic acid derivatives” (priority 1999, published 2004)
Where a name gives a salt, the structure may show the parent alone. Read-outs that look alike come from different tables or passages of the source.

Legend:
[1] = biological target: T1, LFA-1 binding to immobilized ICAM-1 (Homo sapiens, UniProt P05107+P20701); test: LFA-1/ICAM-1 protein-protein assay (solid-phase ELISA); conditions: read-out: LFA-1/ICAM-1 Protein-Protein Assay IC50
T1 construct: made in house; host or cells: transfected 293 cells (LFA-1)
Experimental: (a) LFA-1/ICAM-1 screening test: LFA-1/ICAM-1 antagonist activity, defined as the ability of compounds of the invention to block LFA-1 binding to immobilized ICAM-1, was quantitated using a solid-phase ELISA.
(§1) Typically, fusion protein consisting of the entire extracellular domain of human ICAM-1 and the Fc domain of human IgG (5dICAM-Ig) was coated onto 96-well microtiter plates (0.15 μg in 100 μL PBS) overnight at 4° C. The plates were then blocked with 150 μL of 1% BSA/1 mM MnCl2/0.14 M NaCl/20 mM HEPES, pH 7.2 for 1 h at 37° C. and washed 3 times (150 μL each) with Wash Buffer (50 mM Tris, pH 7.4/100 mM NaCl/1 mM MnCl2/0.05% Tween 20). Stock solutions (100 μM in 100% DMSO) of test compounds were diluted 50 fold with 150 μL of Binding Buffer (0.05% BSA/0.05% Tween 20/1 mM MnCl2/0.14 M NaCl/20 mM HEPES, pH 7.2) plus 10% DMSO. […] Fifty μL per well of each dilution was added to the ICAM-1 coated plates, followed by 50 μL per well of membrane-bound LFA-1 (280 ng/mL in Binding Buffer) derived from transfected 293 cells. The plates were shaken vigorously for 1 min (room temperature) and gently for 2 h (37° C.). After incubation, the plates were washed 3 times (150 μL each) with Wash Buffer. Mouse anti-human integrin β2 monoclonal antibody was added (100 μL/well, 1 μg/mL in Binding Buffer) and allowed to incubate for 1 h (37° C.) with gentle agitation. The plates were then washed 3 times with Wash Buffer. HRP-conjugated goat anti-mouse IgG (100 μL/well, 1:1500 dilution in Binding Buffer) was added to each well, followed by incubation for 1 h (37° C.), and concluded by three washes (150 μL each) with Wash Buffer. TMB solution (100 μL per well) was added for color development (10 min). The reaction was stopped by the addition of 100 μL of 1 M H3PO4 to each well. The plates were then read at 450 nm. The inhibitory activities of test compounds were determined by the IC50s.
as §1, with “LFA-1/ICAM-1 antagonist activity, defined as the ability to block LFA-1 binding to immobilized ICAM-1, was quantitated using a solid-phase ELISA. Typically,” for “Typically,”, “(0.05 %” for “(0.05%”, “nm.” for “nm. The inhibitory activities of test compounds were determined by the IC50s.”

[2] = system: T lymphocyte proliferation (C57BI/6 spleen cells with irradiated BALB/c spleen cells); test: Mixed lymphocyte reaction (MLR), one-way; assay type: cell-based, mice; conditions: read-out: MLR IC50
Source text: Admixture of murine spleen cells from two different inbred strains of mice induces proliferation of T lymphocytes. The magnitude of T cell proliferation depends on the extent of disparity in the major histocompatibility antigens between the two strains. Splenic T lymphocytes from both strains proliferate due to alloantigen recognition, a process for which the interaction of ICAM-1 on antigen-presenting cells with LFA-1 on lymphocytes is necessary. The ability of antagonists to inhibit T lymphocyte proliferation following recognition of alloantigens was assessed in a one-way MLR, where cells from one strain were irradiated to permit measurement of the proliferative response of cells from the other strain. Spleen cells were washed three times in tissue culture medium (TCM; see below). […] One hundred microliters of serial dilutions of antagonists or TCM were added to the spleen cell mixture. The total volume in each well was 200 μL. TCM was RPMI1640 containing 10% heat-inactivated fetal bovine serum, […] L-glutamine, 100 Units/ml each of penicillin and streptomycin and 5×10^−5 M 2-mercaptoethanol. Dilutions of antagonists were prepared in TCM. Plates were incubated in 5% CO2 for 3 days. On the third day, 0.5 μCi of tritiated thymidine (10 μCi/mL) was added to all the wells. Cells were harvested 6 h later on a 96-well plate harvester and the amount of tritiated thymidine incorporated was assessed in a liquid scintillation counter.

T1 sequence (P20701 26-1170): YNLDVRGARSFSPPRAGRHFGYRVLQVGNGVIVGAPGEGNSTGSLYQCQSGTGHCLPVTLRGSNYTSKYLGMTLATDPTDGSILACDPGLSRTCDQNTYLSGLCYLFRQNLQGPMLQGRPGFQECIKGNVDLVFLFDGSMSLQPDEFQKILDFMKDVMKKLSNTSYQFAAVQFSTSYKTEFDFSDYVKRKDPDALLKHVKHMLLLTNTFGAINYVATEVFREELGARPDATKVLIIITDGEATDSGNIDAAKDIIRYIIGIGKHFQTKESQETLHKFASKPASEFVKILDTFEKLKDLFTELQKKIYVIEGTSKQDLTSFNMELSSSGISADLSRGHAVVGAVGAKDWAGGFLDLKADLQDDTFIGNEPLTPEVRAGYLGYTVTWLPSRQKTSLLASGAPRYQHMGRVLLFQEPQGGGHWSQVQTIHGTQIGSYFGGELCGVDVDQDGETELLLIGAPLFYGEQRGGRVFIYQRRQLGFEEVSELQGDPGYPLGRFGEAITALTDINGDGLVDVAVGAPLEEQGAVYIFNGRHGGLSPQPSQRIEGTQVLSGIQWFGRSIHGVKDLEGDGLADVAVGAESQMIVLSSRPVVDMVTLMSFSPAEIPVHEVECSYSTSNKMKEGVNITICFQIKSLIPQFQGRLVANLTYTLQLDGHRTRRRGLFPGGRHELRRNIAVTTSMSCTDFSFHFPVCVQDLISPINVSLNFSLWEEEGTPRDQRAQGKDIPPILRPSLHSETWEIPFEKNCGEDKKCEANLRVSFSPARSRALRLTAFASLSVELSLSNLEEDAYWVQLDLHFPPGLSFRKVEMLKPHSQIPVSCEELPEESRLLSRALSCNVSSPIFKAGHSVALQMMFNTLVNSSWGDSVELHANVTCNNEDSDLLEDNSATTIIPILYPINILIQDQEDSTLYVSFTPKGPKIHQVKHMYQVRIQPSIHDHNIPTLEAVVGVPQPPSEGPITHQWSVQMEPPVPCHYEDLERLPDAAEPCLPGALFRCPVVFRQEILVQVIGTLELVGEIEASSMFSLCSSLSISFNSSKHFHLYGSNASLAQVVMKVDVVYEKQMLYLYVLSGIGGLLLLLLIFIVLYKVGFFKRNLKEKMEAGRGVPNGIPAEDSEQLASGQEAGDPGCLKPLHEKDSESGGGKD
T1 sequence (P05107 23-769): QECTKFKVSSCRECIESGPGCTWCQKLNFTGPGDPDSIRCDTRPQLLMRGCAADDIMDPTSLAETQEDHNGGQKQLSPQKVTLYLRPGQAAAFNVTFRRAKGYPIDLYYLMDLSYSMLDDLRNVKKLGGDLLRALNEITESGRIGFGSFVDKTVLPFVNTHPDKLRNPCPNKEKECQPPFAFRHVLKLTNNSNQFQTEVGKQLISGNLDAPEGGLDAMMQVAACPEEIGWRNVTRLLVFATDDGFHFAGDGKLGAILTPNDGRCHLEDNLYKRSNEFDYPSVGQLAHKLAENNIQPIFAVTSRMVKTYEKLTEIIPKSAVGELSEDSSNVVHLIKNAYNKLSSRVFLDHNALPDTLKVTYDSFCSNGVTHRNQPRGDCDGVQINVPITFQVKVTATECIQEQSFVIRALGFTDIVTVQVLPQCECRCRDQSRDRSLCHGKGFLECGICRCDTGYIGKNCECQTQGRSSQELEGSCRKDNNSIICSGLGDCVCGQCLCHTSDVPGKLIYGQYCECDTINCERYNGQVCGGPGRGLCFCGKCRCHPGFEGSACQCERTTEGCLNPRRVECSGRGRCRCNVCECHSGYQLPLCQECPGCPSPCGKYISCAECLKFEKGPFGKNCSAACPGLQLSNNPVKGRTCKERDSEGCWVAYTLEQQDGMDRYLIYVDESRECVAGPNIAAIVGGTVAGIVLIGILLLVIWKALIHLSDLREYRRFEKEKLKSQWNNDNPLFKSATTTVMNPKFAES

IC50 [1] | Structure (SMILES) | IC50 ([2]; Mus musculus, T-lymphocyte) | IC50 ([2]; sodium salt)
0.015 µM | COc1cc(C(=O)NC[C@H](NC(=O)c2ccc(C(=O)NCc3cccc(O)c3)cc2Cl)C(=O)O)nc2ccccc12 [Example 182] |  | 
0.042 µM | O=C(Cc1ccccc1)NC[C@H](NC(=O)c1c(Cl)cccc1Cl)C(=O)O [Example 204] |  | 
0.031 µM | O=C(Cc1ccc([N+](=O)[O-])cc1)NC[C@H](NC(=O)c1c(Cl)cccc1Cl)C(=O)O [Example 205] |  | 
0.023 µM | O=C1CC[C@@H](C(=O)NC[C@H](NC(=O)c2c(Cl)cccc2Cl)C(=O)O)O1 [Example 208] |  | 
0.036 µM | O=C(N[C@@H](CNC(=O)C1CC1)C(=O)O)c1c(Cl)cccc1Cl [Example 210] |  | 
0.036 µM | O=C(N[C@@H](CNC(=O)C1CCC1)C(=O)O)c1c(Cl)cccc1Cl [Example 212] |  | 
0.031 µM | O=C(N[C@@H](CNC(=O)C1CCCC1)C(=O)O)c1c(Cl)cccc1Cl [Example 213] |  | 
0.035 µM | O=C(N[C@@H](CNC(=O)C1CCCCC1)C(=O)O)c1c(Cl)cccc1Cl [Example 215] |  | 
0.033 µM | O=C(/C=C/c1cccs1)NC[C@H](NC(=O)c1c(Cl)cccc1Cl)C(=O)O [Example 218] |  | 
0.024 µM | COc1cccc(C(=O)NC[C@H](NC(=O)c2c(Cl)cccc2Cl)C(=O)O)c1 [Example 221] |  | 
0.031 µM | O=C(NC[C@H](NC(=O)c1c(Cl)cccc1Cl)C(=O)O)c1ccc2[nH]ccc2c1 [Example 225] |  | 
0.021 µM | Cc1cccc(C(=O)NC[C@H](NC(=O)c2c(Cl)cccc2Cl)C(=O)O)n1 [Example 227] | 8.55 µM | 
0.0044 µM | N[C@H](Cc1ccc(O)cc1)C(=O)NC[C@H](NC(=O)c1ccc(C(=O)NCc2cccc(O)c2)cc1Cl)C(=O)O [Example 274] | 3.7 µM | 
0.0022 µM | N[C@H](CC(=O)O)C(=O)NC[C@H](NC(=O)c1ccc(C(=O)NCc2cccc(O)c2)cc1Cl)C(=O)O [Example 275] | 0.54 µM | 
0.0012 µM | Nc1cccc(C(=O)NC[C@H](NC(=O)c2ccc(C(=O)NCc3cccc(O)c3)cc2Cl)C(=O)O)c1 [Example 288] | 0.21 µM | 
0.0054 µM | N[C@@H](CO)C(=O)NC[C@H](NC(=O)c1ccc(C(=O)NCc2cccc(O)c2)cc1Cl)C(=O)O [Example 292] | 3.65 µM | 
0.0011 µM | O=C(NCc1cccc(O)c1)c1ccc(C(=O)N[C@@H](CNC(=O)c2ccccc2)C(=O)O)c(Cl)c1 [Example 304, 3-benzoylamino-N-[2-chloro-4-[[[(3-hydroxyphenyl)methyl]amino]carbonyl]benzoyl]-L-alanine, sodium salt] |  | 0.27 µM
0.042 µM | CCCCS(=O)(=O)NC[C@H](NC(=O)c1ccc(C(=O)N[C@H](C)c2cccc3ccccc23)cc1Cl)C(=O)O [Example 361, 3-(1-butanesulfonylamino)-N-[2-chloro-4-[[[(1R)-1-(1-naphthalenyl)ethyl]amino]carbonyl]benzoyl]-L-alanine] | 21.5 µM | 
0.041 µM | Nc1cccc(C(=O)NCc2ccc(C(=O)N[C@@H](CNC(=O)c3ccccc3)C(=O)O)c(Cl)c2)c1 [Example 367] | 17 µM | 
0.04 µM | O=C(NCc1ccc(C(=O)N[C@@H](CNC(=O)c2ccccc2)C(=O)O)c(Cl)c1)c1cnc2ccccc2c1 [Example 370] | 11 µM | 
